{"source": "patent US11985974B2", "about": "“Antimicrobial ferulic acid derivatives and uses thereof” (WISCONSIN ALUMNI RESEARCH FOUNDATION, priority 2014, dated 2024)", "key": {"bck1Δ mutant": {"tested_on": "bck1Δ mutant", "assay": "Sensitivity of individual bck1Δ mutant", "assay_type": "cell-based, Saccharomyces cerevisiae", "conditions": "bck1Δ mutant vs control strain", "description": "The diferulate compounds tested were synthesized as described by Lu et al. (2012) and resuspended in DMSO. Caspofungin, nikkomycin Z, and MMS were purchased from Sigma-Aldrich. Echinocandin B was a gift from O. Kondo (Chugai Pharmaceuticals, Tokyo, Japan). Micafungin was provided by Astellas Pharma. Diferulates were initially screened at a concentration of 1 mg/mL to determine bioactivity. Cells of Saccharomyces cerevisiae (MATα pdr1Δ::natMX pdr3Δ::KLURA3 snq2Δ::KI.LEU2 can1Δ::STE2pr-Sp_his5 lyp1Δ his3Δ1 leu2Δ0 ura3Δ0 met15Δ0), referred to as the control strain, were grown in 200-μL cultures at 30° C. in YPD with a drug or DMSO control. Plates were read on a TECAN M1000 over a 48-h growth period. The specific growth rate was calculated using GCAT analysis software (https://gcat3-pub.glbrc.org/) (Sato et al. 2014). When presented, IC50 values for growth rate inhibition were calculated from triplicate eight-point dose curves and SigmaPlot 12.0. When presented, error bars are means±SEs of at least three replicates."}, "yeast cells": {"tested_on": "yeast cells", "assay": "Cell leakage assay (FungaLight, flow cytometry)", "assay_type": "cell-based, Saccharomyces cerevisiae", "conditions": "4 h", "description": "A FungaLight Cell Viability Assay (L34952; Invitrogen) using a Guava Flow Cytometer (Millipore) was used to determine if poacic acid caused membrane damage. The population of stained cells (damaged integrity) vs. nonstained cells can be determined by flow cytometry. Caspofungin (50 ng/mL) was included as a positive control. MMS and DMSO were included as a noncell wall-targeting control and a solvent control, respectively. To test the effects of the compounds on both active and arrested cells, log-phase cultures were washed with 1×PBS and resuspended to an OD0.5 in either YPD medium or YP (no carbon source) in the presence of the drugs (n=3) for 4 h at 30° C. The cells were then stained and immediately read by flow cytometry. One-way ANOVA and Tukey's test were used to calculate the difference between drug treatments among cells with arrested growth."}, "P. sojae (field isolate)": {"tested_on": "P. sojae (field isolate)", "assay": "Colony growth of P. sojae on plates", "assay_type": "cell-based, Phytophthora sojae", "conditions": "0, 500, 1,000, 1,500 μg/mL, 7 d, P<0.01", "description": "To test inhibition in liquid culture, a dose curve of 0, 125, 250, and 500 μg/mL poacic acid in 100 mL potato dextrose broth (n=3) was used. Cultures of S. sclerotiorum strain 1980 were inoculated with 100 μL homogenized mycelia and grown at 25° C. for 48 h. The mycelia in the liquid media were dried and weighed. The growth inhibition of poacic acid on solid agar cultures (potato dextrose agar) was assessed by generating replicate plates (n=3) containing 0, 125, 250, and 500 μg/mL poacic acid. Plates were inoculated with an actively growing plug of S. sclerotiorum and grown at 25° C. The mycelial radial growth after 48 h was measured Inhibition of S. sclerotiorum in planta was tested by inoculating detached soybean leaves of the commercial variety Williams 82 with an agar plug of actively growing S. sclerotiorum mycelia. Leaves were treated one time before inoculation with either an aerosol spray of water with DMSO (control) or a 500 μg/mL solution of poacic acid. Leaves were incubated in a moist environment, and lesion development was monitored up to 120 h postinoculation. […] The growth inhibition of poacic acid was assessed at 0, 500, 1,000, and 1,500 μg/mL in replicate plates (n=3). […] Colony diameter was monitored for each treatment in a time-course experiment. […]"}, "Saccharomyces cerevisiae": {"tested_on": "Saccharomyces cerevisiae", "assay": "Synergy screening", "assay_type": "cell-based", "description": "To test for synergy, a 6×6-dose matrix was initially used to identify potentially synergistic dose combinations, and these points were then confirmed in triplicate. Cultures (200 μL) were grown with combinations of poacic acid (125 μg/mL), caspofungin (12.5 ng/mL), and fluconazole (3.8 μg/mL), and the ODs of relevant single-agent and solvent controls were measured after 24 h. Synergy was determined by comparing actual OD in the presence of compound combinations with an expected value calculated using the multiplicative hypothesis. This method assumes that, in the absence of an interaction, each compound would decrease the OD of the cell culture by the same fraction in the presence of the other compound as it does when applied alone (that is, E=A×B/C, where E is the expected OD, A is OD when compound A is applied alone, B is OD when compound B is applied alone, and C is OD of the control culture (DMSO). In the presence of synergy, the actual OD value is lower than the expected OD. A paired t test was used to confirm statistical significance of this difference in three replicates of the experiment."}, "β-1,3-glucan synthase": {"tested_on": "T1, β-1,3-glucan synthase", "T1 construct": "membrane fraction was prepared from S. cerevisiae BY4741", "assay": "β-1,3-glucan synthase activity in the membrane fraction", "assay_type": "biochemical, S. cerevisiae BY4741", "conditions": "25° C., 30 min", "description": "After the membrane fraction was prepared from S. cerevisiae BY4741 as described previously (n=3) (Abe et al. 2001), β-1,3-glucan synthase activity was measured as described previously (n=3) (Inoue et al. 1995) with slight modification. Briefly, 20 μL membrane fraction (˜70 μg total protein) was added to a reaction mixture (final volume of 100 μL) containing 50 mM Tris·HCl, pH 7.5, 10 mM potassium fluoride, 1 mM EDTA, 0.2 mM UDP-Glc (with 89 Bq UDP-[Glucose-14C]; NEC403; PerkinElmer), and different concentrations of poacic acid (1.25, 2.5, 5, 10, 20, 40, 80, 160, or 320 μg/mL). The reaction mixture was incubated at 25° C. for 30 min and stopped by the addition of ethanol. To trap reaction product (β-1,3-glucan polymer), the reaction mixture was filtered through the membrane filter (mixed cellulose esters; 0.2 μm in pore size; ADVANTEC), washed one time with 2 mL distilled water, and dried at room temperature. After addition of scintillation mixture (Econofluor-2; PerkinElmer), radioactivity was measured by a scintillation counter (LSC-6100; Aloka) Inhibition curves and IC50 values were determined using R software (ver. 3.0.1) by sigmoidal curve fitting with the glm function."}}, "note": "Entries after “also recorded” stand apart in the source; their conditions may differ.", "data": [{"smiles": "COc1cc(/C=C/c2cc(/C=C/C(=O)O)cc(OC)c2O)ccc1O", "note": "[poacic acid, (E)-4-Hydroxy-3-{2-[(E)-4-hydroxy-3-methoxystyryl]}-5-methoxycinnamic acid]", "values": [{"measurement": "reduction in the IC50 compared with the control strain (WT)", "setting": "bck1Δ mutant", "value": "six-fold reduction; also recorded: six-fold more sensitive"}, {"measurement": "cell leakage (propidium iodide uptake)", "setting": "yeast cells; actively growing cells (YPD)", "value": "caused rapid cell leakage"}, {"measurement": "cell leakage (propidium iodide uptake)", "setting": "yeast cells; arrested cells without carbon source (YP)", "value": "leakage was still significantly greater"}, {"measurement": "colony growth", "setting": "P. sojae (field isolate)", "value": "significantly reduces colony growth"}, {"measurement": "synergy with methyl methanesulfonate (MMS)", "setting": "Saccharomyces cerevisiae", "value": "not synergistic"}, {"measurement": "synergy with caspofungin", "setting": "Saccharomyces cerevisiae; poacic acid 125 μg/mL + caspofungin 12.5 ng/mL, 24 h, P<0.05", "value": "significant synergistic effects"}, {"measurement": "synergy with fluconazole", "setting": "Saccharomyces cerevisiae; poacic acid 125 μg/mL + fluconazole 3.8 μg/mL, 24 h, P<0.01", "value": "significant synergy"}, {"measurement": "synergy with staurosporine", "setting": "Saccharomyces cerevisiae; poacic acid 125 μg/ml + staurosporine 100 ng/ml", "value": "synergy"}, {"measurement": "IC50 (β-1,3-glucan synthase activity in vitro)", "setting": "β-1,3-glucan synthase", "value": 31, "unit": "µg/mL"}]}]}
